Experimental data taken from PubChem BioAssay (NCI).
Values joined by “and” are separate entries in the source; they are usually repeats but may differ in a detail not shown here. Equal entries are not always repeated.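 Results reflect a 48-hour exposure of cells in 96-well plates to compound at five concentrations. GI50 = concentration required for 50% inhibition of growth. TGI marks complete inhibition of growth.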

Assays:
Assay in all cases: NCI-60 cell line screen, 48 h
[1] = system: UO-31 renal
[2] = system: PC-3 prostate
[3] = system: COLO 205 colon
[4] = system: HCC-2998 colon
[5] = system: EKVX NSCLC
[6] = system: SR leukemia
[7] = system: MCF7 breast
[8] = system: LOX IMVI melanoma
[9] = system: HCT-15 colon
[10] = system: SK-MEL-5 melanoma

Compound | TGI [1] [µM] | TGI [2] [µM] | TGI [3] [µM] | TGI [4] [µM] | TGI [5] [µM] | TGI [6] | TGI [7] [µM] | TGI [8] [µM] | TGI [9] [µM] | TGI [10] [µM] | GI50 [2] | GI50 [4] | GI50 [6] | GI50 [8] | GI50 [9] | GI50 [10]
COc1ccc(C2c3cc4c(cc3OC(NCCO)C2C)OCO4)cc1 (configuration not stated) | 76.8 | 66.3 | 36.2 | 66 | 92.5 | 39.9 µM | 66.7 | 68.7 | 54.4 | 44.7 | – | – | – | – | – | –
CC(C)=CCC[C@@H](C)C1=C(O)C(N)=C(C)C(=O)C1=O | > 71.1 | > 100 | > 100 | > 100 | > 100 | > 78.4 µM | > 100 | > 100 | > 100 | > 86 | – | – | – | – | – | –
C[n+]1c(/C=C/c2ccc(O)c3ncccc23)[se]c2ccccc21 | 18.3 | 12.7 | 22.2 | – | 28 | > 21.9 µM | 14.8 | 9.08 | 17.6 | 26.5 | – | – | – | – | – | –
O=C(OCC1OC(n2nc(Cn3nnc(-c4cccnc4)n3)n(-c3cccc4ccccc34)c2=S)C(OC(=O)c2ccccc2)C1OC(=O)c1ccccc1)c1ccccc1 (configuration not stated) | > 100 | > 100 | > 100 | > 100 | > 100 | > 100 µM | > 100 | > 100 | > 100 | > 100 | – | – | – | – | – | –
COc1cccc2c1OCC1Cc3ccccc3OC21 (configuration not stated) | > 100 | > 100 | 96.1 | > 100 | > 100 | > 100 µM | > 100 | 98.3 | > 100 | 30.8 | – | – | – | – | – | –
Cc1cc(C)nc(NS(=O)(=O)c2ccc(NC(=O)c3cccc4c(NNc5ccc(S(=O)(=O)N=C(N)N)cc5)c5ccccc5nc34)cc2)n1 | > 50 | > 50 | > 50 | > 50 | > 50 | > 50 µM | > 50 | > 50 | > 50 | > 50 | – | – | – | – | – | –
O=C(O)CN(CC(=O)O)C(C(=O)O)c1ccccc1 (configuration not stated) | > 100 | > 100 | > 100 | > 100 | > 100 | > 100 µM | > 100 | > 100 | > 100 | > 100 | – | – | – | – | – | –
O=C1C2=C(CCC2)Nc2cccc3ncn1c23 | > 100 | – | > 100 | > 100 | > 100 | > 100 µM | – | > 100 | > 100 | > 100 | – | – | – | – | – | –
C=CCN1C(=O)/C(=C/c2ccc(C)cc2)N=C1SC1OC(COC(C)=O)C(OC(C)=O)C(OC(C)=O)C1OC(C)=O (configuration not stated) | – | > 100 | > 100 | > 100 | > 100 | > 76.5 µM and 44.3 µM | > 100 | > 100 | > 100 | > 100 | > 100 µM and 34.2 µM | > 100 µM and 35.6 µM | 26.5 µM and 10.8 µM | > 100 µM and 31.7 µM | > 100 µM and 29.7 µM | 11.2 µM and 32.9 µM
COc1cc(C(O)c2ccc3c(c2)OCO3)cc(OC)c1OC (configuration not stated) | > 100 | > 100 | > 100 | > 100 | > 100 | > 100 µM | > 100 | > 100 | > 100 | > 100 | – | – | – | – | – | –
